Data published in patent publication US20250320213A1, “Nitrogen-Containing Heterocyclic Compounds” (Pfizer Inc., priority 2024, published 2025).
Counter-ions that a name gives are not always drawn. Like-named read-outs stand apart in the source and are kept apart here.

What was measured:
[1] = target: T1, STAT6 (Homo sapiens, UniProt P42226); test: STAT6 Reporter Luciferase Assay (IL-13 stimulated HaCaT keratinocyte NanoLuc reporter cells); type: cell-based; conditions: read-out: Reporter EC50
T1 construct: stably transfected HaCaT keratinocyte cell line, which expresses NanoLuc luciferase reporter gene under the transcriptional control of the STAT6 responsive promoter; endogenous in cells; host or cells: HaCaT keratinocyte reporter cell line (stably transfected with a NanoLuc reporter)
T1 sequence (P42226 1-847): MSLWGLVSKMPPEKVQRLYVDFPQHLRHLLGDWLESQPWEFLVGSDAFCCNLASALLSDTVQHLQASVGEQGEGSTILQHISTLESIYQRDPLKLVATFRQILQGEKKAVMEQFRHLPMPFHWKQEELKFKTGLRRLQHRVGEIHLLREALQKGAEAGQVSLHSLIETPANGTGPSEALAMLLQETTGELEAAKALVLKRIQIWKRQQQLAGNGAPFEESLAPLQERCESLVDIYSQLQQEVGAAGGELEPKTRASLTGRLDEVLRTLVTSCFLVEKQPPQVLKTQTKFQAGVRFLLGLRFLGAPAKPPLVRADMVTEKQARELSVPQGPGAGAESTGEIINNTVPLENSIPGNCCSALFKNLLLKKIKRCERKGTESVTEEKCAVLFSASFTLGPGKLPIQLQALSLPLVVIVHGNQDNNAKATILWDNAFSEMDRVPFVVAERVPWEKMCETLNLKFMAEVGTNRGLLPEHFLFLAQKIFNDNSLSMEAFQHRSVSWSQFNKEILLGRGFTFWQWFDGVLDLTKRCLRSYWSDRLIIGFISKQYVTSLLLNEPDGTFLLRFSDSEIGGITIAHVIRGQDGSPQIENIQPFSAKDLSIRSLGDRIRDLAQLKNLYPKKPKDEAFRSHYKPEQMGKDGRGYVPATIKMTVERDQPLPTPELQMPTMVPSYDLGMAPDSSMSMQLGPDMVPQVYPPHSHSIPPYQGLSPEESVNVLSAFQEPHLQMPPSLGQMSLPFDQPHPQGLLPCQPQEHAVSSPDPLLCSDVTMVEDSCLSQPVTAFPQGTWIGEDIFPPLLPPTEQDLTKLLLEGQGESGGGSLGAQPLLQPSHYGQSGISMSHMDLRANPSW
Procedure, shortened: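 Stably transfected HaCaT cells carrying NanoLuc under the STAT6-responsive IL-13Ra2 promoter were pre-treated with compound (11-point, 4-fold series, duplicate) for 2 h at 37 °C, then stimulated with 0.12 nM IL-13 for 4 h. Nano-Glo luminescence was read after 15 min.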

[2] = test system: CCL17 secretion in peripheral human whole blood; test: Human Whole Blood (HWB) CCL17 TR-FRET Assay (IL-13 stimulated CCL17 secretion); type: cell-based; conditions: 10 ng/mL IL13, 48 hours
Procedure: The IC50 (half-maximal concentration required for inhibition) of compounds for the inhibition of CCL17 secretion in peripheral human whole blood, stimulated through the IL-13-IL-13 receptor/IL-4 receptor pathway was evaluated with a TR-FRET sandwich ELISA CCL17 (TARC) Assay Kit (Bioauxilium).
Test compounds (solubilized and serially diluted in DMSO, in an 11 point, 3-fold dilution series in duplicate) were spotted, 80 nL per well, into a 384 well v-bottom polypropylene plate. Human whole blood was collected from a peripheral vein, 714 units of sodium heparin was added for every 50 mL of blood collected. Sixty μL per well of blood was added to the compound plate. The blood plate was incubated for two hours at 37° C. After two hours, CCL17 production was stimulated with the addition of 20 μL per well of IL13 (R&D Systems) in HBSS with calcium and magnesium, with a final concentration of 10 ng/mL IL13. The plate containing blood, compound, and IL-13 was incubated at 37° C. for 48 hours, to allow for CCL17 production. After 48 hours, the plate was centrifuged at 1,500 revolutions per minute (RPM) for 7 minutes, with no braking. The CCL17 TR-FRET Assay Kit detection reagent was prepared according to kit instructions and 4 μL per well of the antibody cocktail was added to a 384-well white low volume non-binding coated plate (Corning). Sixteen μL of serum from the centrifuged blood plate was transferred to the detection plate containing the TR-FRET antibody cocktail. The plate was centrifuged briefly, then covered and incubated 16 hours at room temperature. The plate was then read on an EnVision 2105 multilabel reader (PerkinElmer) with settings for TR-FRET Ratio=10,000×(fluorescence intensity 665 nm/fluorescence intensity 615 nm).

[3] = IL-13 stimulated HaCaT STAT6 NanoLuc reporter cells
[4] = STAT6 NanoLuc luciferase reporter, IL-13 stimulated HaCaT keratinocyte cells
[5] = inhibition of CCL17 secretion in human whole blood
[6] = Homo sapiens, 48 h, inhibition of CCL17 secretion in human whole blood

EC50 [1, 4] [nM] | IC50 [2, 6] [nM] | SMILES | other results
 |  | CC(n1nc(C(=O)NCc2ccc(NC(=O)N(C)C)cc2)c2c1[C@H](C)CN(c1ccc(C(=O)N(C)C)cn1)C2)C(F)(F)F (mixture of isomers) [Example 553, (R)-5-(5-(dimethylcarbamoyl)pyridin-2-yl)-N-(4-(3,3-dimethylureido)benzyl)-7-methyl-1-((RS)-1,1,1-trifluoropropan-2-yl)-4,5,6,7-tetrahydro-1H-pyrazolo[4,3-c]pyridine-3-carboxamide] | EC50 [1, 3]: 4 nM; IC50 ([2]; Homo sapiens, 48 h, human whole blood): 18 nM
 |  | CC(C)n1nc(C(=O)NCc2ccc(NC(=O)N3C[C@H]4CC[C@@H](C3)N4)c(F)c2)c2c1[C@@H](C)CN(c1ccc(C(=O)N(C)C)cc1)C2 (mixture of isomers) [Example 573, (S)-N-(4-((1RS,5SR)-3,8-diazabicyclo[3.2.1]octane-3-carboxamido)-3-fluorobenzyl)-5-(4-(dimethylcarbamoyl)phenyl)-1-isopropyl-7-methyl-4,5,6,7-tetrahydro-1H-pyrazolo[4,3-c]pyridine-3-carboxamide] | EC50 [1, 3]: 1 nM; IC50 ([2]; human whole blood): 11 nM
69 | 561 | CN(C)C(=O)Nc1ccc(CNC(=O)c2nn(C)c3c2CC(c2ccc(C(=O)N(C)C)cc2)CC3)cc1 (racemic) [Example 26, rac-(R)-5-(4-(Dimethylcarbamoyl)phenyl)-N-(4-(3,3-dimethylureido)benzyl)-1-methyl-4,5,6,7-tetrahydro-1H-indazole-3-carboxamide] | 
9 | 39 | CC1Cc2c(c(C(=O)NCc3ccc(NC(=O)N(C)C)cc3)nn2C)CN1c1ccc(C(=O)N(C)C)cn1 (racemic) [Example 49, rac-(R)-5-(5-(dimethylcarbamoyl)pyridin-2-yl)-N-(4-(3,3-dimethylureido)benzyl)-1,6-dimethyl-4,5,6,7-tetrahydro-1H-pyrazolo[4,3-c]pyridine-3-carboxamide] | 
10 | 12 | CC1c2c(C(=O)NCc3ccc(NC(=O)N(C)C)cc3)nn(C)c2CCN1c1ccc(C(=O)N(C)C)cn1 (racemic) [Example 55, rac-(R)-5-(5-(dimethylcarbamoyl)pyridin-2-yl)-N-(4-(3,3-dimethylureido)benzyl)-1,4-dimethyl-4,5,6,7-tetrahydro-1H-pyrazolo[4,3-c]pyridine-3-carboxamide] | 
98 | 182 | CCC1CN(c2ccc(C(=O)N(C)C)cn2)Cc2c(C(=O)NCc3ccc(NC(=O)N(C)C)cc3)n[nH]c21 (racemic) [Example 57, rac-(R)-5-(5-(dimethylcarbamoyl)pyridin-2-yl)-N-(4-(3,3-dimethylureido)benzyl)-7-ethyl-4,5,6,7-tetrahydro-1H-pyrazolo[4,3-c]pyridine-3-carboxamide] | 
3 | 27 | CC1CN(c2ccc(-c3nccn3C)cn2)Cc2c(C(=O)NCc3ccc(NC(=O)N(C)C)cc3)nn(C)c21 (racemic) [Example 59, rac-(R)-N-(4-(3,3-dimethylureido)benzyl)-1,7-dimethyl-5-(5-(1-methyl-1H-imidazol-2-yl)pyridin-2-yl)-4,5,6,7-tetrahydro-1H-pyrazolo[4,3-c]pyridine-3-carboxamide] | 
9 | 66 | CC(C1CC1)n1nc(C(=O)NCc2ccc(NC(=O)N(C)C)cc2)c2c1CCN(c1ccc(C(=O)N(C)C)cn1)C2 (racemic) [Example 62, rac-(R)-1-(1-cyclopropylethyl)-5-(5-(dimethylcarbamoyl)pyridin-2-yl)-N-(4-(3,3-dimethylureido)benzyl)-4,5,6,7-tetrahydro-1H-pyrazolo[4,3-c]pyridine-3-carboxamide] | 
2 | 14 | CCn1nc(C(=O)NCc2ccc(NC(=O)N(C)C)cc2)c2c1C(C)CN(c1ccc(C(=O)N(C)C)cn1)C2 (racemic) [Example 71, rac-(R)-5-(5-(dimethylcarbamoyl)pyridin-2-yl)-N-(4-(3,3-dimethylureido)benzyl)-1-ethyl-7-methyl-4,5,6,7-tetrahydro-1H-pyrazolo[4,3-c]pyridine-3-carboxamide] | 
4 | 45 | CCC1CN(c2ccc(C(=O)N(C)C)cn2)Cc2c(C(=O)NCc3ccc(NC(=O)N(C)C)cc3)nn(C)c21 (racemic) [Example 77, rac-(R)-5-(5-(Dimethylcarbamoyl)pyridin-2-yl)-N-(4-(3,3-dimethylureido)benzyl)-7-ethyl-1-methyl-4,5,6,7-tetrahydro-1H-pyrazolo[4,3-c]pyridine-3-carboxamide] | 
> 10000 | > 30000 | CC(C)n1nc(C(=O)NCc2ccc(NC(=O)N(C)C)cc2)c2c1CCN(c1ccc(N3CC(CO)OC3=O)cn1)C2 (racemic) [Example 80, rac-(R)-N-(4-(3,3-dimethylureido)benzyl)-5-(5-(5-(hydroxymethyl)-2-oxooxazolidin-3-yl)pyridin-2-yl)-1-isopropyl-4,5,6,7-tetrahydro-1H-pyrazolo[4,3-c]pyridine-3-carboxamide] | 
34 | 115 | CC(NC(=O)c1nn(C(C)C)c2c1CN(c1ccc(C(=O)N(C)C)cn1)CC2)c1ccc(NC(=O)N(C)C)cc1 (racemic) [Example 81, rac-(R)-5-(5-(dimethylcarbamoyl)pyridin-2-yl)-N-(1-(4-(3,3-dimethylureido)phenyl)ethyl)-1-isopropyl-4,5,6,7-tetrahydro-1H-pyrazolo[4,3-c]pyridine-3-carboxamide] | 

SMILES | EC50 [1, 4] [nM] | IC50 [2, 6] [nM] | other results
CC1CN(c2ccc(C(=O)N(C)C)cn2)Cc2c(C(=O)NCc3ccc(NC(=O)N(C)C)cc3)nn(C)c21 (racemic) [Example 6, rac-(R)-5-(5-(Dimethylcarbamoyl)pyridin-2-yl)-N-(4-(3,3-dimethylureido)benzyl)-1,7-dimethyl-4,5,6,7-tetrahydro-1H-pyrazolo[4,3-c]pyridine-3-carboxamide] | 4 |  | IC50 [2, 5]: 25 nM
Cc1nc(C(=O)NCc2ccc(NC(=O)N(C)C)cc2)c2n1C(C)CN(c1ccc(C(=O)N(C)C)cn1)C2 (racemic) [Example 9, rac-(R)-7-(5-(Dimethylcarbamoyl)pyridin-2-yl)-N-(4-(3,3-dimethylureido)benzyl)-3,5-dimethyl-5,6,7,8-tetrahydroimidazo[1,5-a]pyrazine-1-carboxamide formate] | 15 |  | IC50 [2, 5]: 27 nM
CN(C)C(=O)Nc1ccc(CNC(=O)c2nn(C)c3c2[C@H]2CCC[C@@H](C3)N2c2ccc(C(=O)N(C)C)cn2)cc1 (racemic) [Example 68, rac-(4R,8S)-10-(5-(dimethylcarbamoyl)pyridin-2-yl)-N-(4-(3,3-dimethylureido)benzyl)-1-methyl-4,5,6,7,8,9-hexahydro-1H-4,8-epiminocycloocta[c]pyrazole-3-carboxamide] | 9 |  | IC50 [2, 5]: 43 nM
CN(C)C(=O)Nc1ccc(CNC(=O)c2nn(C)c3c2[C@@H]2COC[C@H](C3)N2c2ccc(C(=O)N(C)C)cn2)cc1 (racemic) [Example 72, rac-(4R,8S)-10-(5-(dimethylcarbamoyl)pyridin-2-yl)-N-(4-(3,3-dimethylureido)benzyl)-1-methyl-1,4,5,7,8,9-hexahydro-4,8-epiminooxocino[5,4-c]pyrazole-3-carboxamide] | 308 | 1100 | 
